Experimental data from PubChem BioAssay AID1963863 (Molecular Pharmacology Branch, DTP, NCI, 2024).
pIC50: −log10 of the molar value.

Tested on: 931267-113-T-J1-PDC KRAS spheroid with HUVEC/MSC, viability
Assay: Anticancer human tumor 931267-113-T-J1-PDC patient-derived colon adenocarcinoma cell line growth inhibition [KRAS2]
Conditions: for pIC50: curve of first compound; for viability, T/C: stronger effect = lower value
Summary of the method: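 Combination screen of spheroid viability in tumor-cell co-cultures with endothelial (HUVEC) and mesenchymal stem cell stroma. Each agent was tested in half-log dilutions, topping at clinical Cmax or at 10 microM without a known Cmax.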

[1] = second compound 0.1 µM, first compound 0.000316 µM
[2] = second compound 0.1 µM, first compound 0.001 µM
[3] = second compound 0.1 µM, first compound 0.00316 µM
[4] = second compound 0.1 µM, first compound 0.01 µM
[5] = second compound 0.1 µM, first compound 0.0316 µM
[6] = second compound 0.316 µM, first compound 0.000316 µM
[7] = second compound 0.316 µM, first compound 0.001 µM
[8] = second compound 0.316 µM, first compound 0.00316 µM
[9] = second compound 0.316 µM, first compound 0.01 µM
[10] = second compound 0.316 µM, first compound 0.0316 µM
[11] = second compound 1 µM, first compound 0.000316 µM
[12] = second compound 1 µM, first compound 0.001 µM
[13] = second compound 1 µM, first compound 0.00316 µM
[14] = second compound 1 µM, first compound 0.01 µM
[15] = second compound 1 µM, first compound 0.0316 µM
[16] = second compound 3.16 µM, first compound 0.000316 µM
[17] = second compound 3.16 µM, first compound 0.001 µM
[18] = second compound 3.16 µM, first compound 0.00316 µM
[19] = second compound 3.16 µM, first compound 0.01 µM
[20] = second compound 3.16 µM, first compound 0.0316 µM
[21] = second compound 10 µM, first compound 0.000316 µM
[22] = second compound 10 µM, first compound 0.001 µM
[23] = second compound 10 µM, first compound 0.00316 µM
[24] = second compound 10 µM, first compound 0.01 µM
[25] = second compound 10 µM, first compound 0.0316 µM
[26] = second compound 0.1 µM, first compound 0.1 µM
[27] = second compound 0.316 µM, first compound 0.1 µM
[28] = second compound 1 µM, first compound 0.1 µM
[29] = second compound 3.16 µM, first compound 0.1 µM
[30] = second compound 10 µM, first compound 0.1 µM
[31] = second compound 0.1 µM, first compound 0.316 µM
[32] = second compound 0.1 µM, first compound 1 µM
[33] = second compound 0.1 µM, first compound 3.16 µM
[34] = second compound 0.1 µM, first compound 10 µM
[35] = second compound 0.316 µM, first compound 0.316 µM
[36] = second compound 0.316 µM, first compound 1 µM
[37] = second compound 0.316 µM, first compound 3.16 µM
[38] = second compound 0.316 µM, first compound 10 µM
[39] = second compound 1 µM, first compound 0.316 µM
[40] = second compound 1 µM, first compound 1 µM
[41] = second compound 1 µM, first compound 3.16 µM
[42] = second compound 1 µM, first compound 10 µM
[43] = second compound 3.16 µM, first compound 0.316 µM
[44] = second compound 3.16 µM, first compound 1 µM
[45] = second compound 3.16 µM, first compound 3.16 µM
[46] = second compound 3.16 µM, first compound 10 µM
[47] = second compound 10 µM, first compound 0.316 µM
[48] = second compound 10 µM, first compound 1 µM
[49] = second compound 10 µM, first compound 3.16 µM
[50] = second compound 10 µM, first compound 10 µM
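Note: compound exposure lasted 7 days before the readout.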
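Throughout, for viability, T/C: 100% = DMSO vehicle control viability.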

CC(=O)Nc1cccc(-n2c(=O)n(C3CC3)c(=O)c3c(Nc4ccc(I)cc4F)n(C)c(=O)c(C)c32)c1 + CC1OCC2(CCN(c3cnc(Sc4ccnc(N)c4Cl)c(N)n3)CC2)C1N
pIC50 (second compound 0.1 µM): 8.09 | pIC50 (second compound 0.316 µM): 8.03 | pIC50 (second compound 1 µM): 8.47 | pIC50 (second compound 3.16 µM): 9.02 | pIC50 (second compound 10 µM): 9.56 | viability, T/C (second compound 0.1 µM, first compound 0.0001 µM): 92% | viability, T/C [1]: 81.6% | viability, T/C [2]: 68.2% | viability, T/C [3]: 56.1% | viability, T/C [4]: 62.2% | viability, T/C [5]: 20.1% | viability, T/C (second compound 0.316 µM, first compound 0.0001 µM): 60.2% | viability, T/C [6]: 54.3% | viability, T/C [7]: 71.8% | viability, T/C [8]: 48.9% | viability, T/C [9]: 51.7% | viability, T/C [10]: 7.58% | viability, T/C (second compound 1 µM, first compound 0.0001 µM): 67.7% | viability, T/C [11]: 69.5% | viability, T/C [12]: 53.9% | viability, T/C [13]: 50.8% | viability, T/C [14]: 37.7% | viability, T/C [15]: 6.56% | viability, T/C (second compound 3.16 µM, first compound 0.0001 µM): 59.7% | viability, T/C [16]: 61.5% | viability, T/C [17]: 46.9% | viability, T/C [18]: 38.7% | viability, T/C [19]: 26.9% | viability, T/C [20]: 7.86% | viability, T/C (second compound 10 µM, first compound 0.0001 µM): 60.8% | viability, T/C [21]: 47.9% | viability, T/C [22]: 31.8% | viability, T/C [23]: 35% | viability, T/C [24]: 12.3% | viability, T/C [25]: 2.06%

CN(C)C/C=C/C(=O)Nc1cc2c(Nc3ccc(F)c(Cl)c3)ncnc2cc1O[C@H]1CCOC1 + CC1OCC2(CCN(c3cnc(Sc4ccnc(N)c4Cl)c(N)n3)CC2)C1N
pIC50 (second compound 0.1 µM): < 7.00 | pIC50 (second compound 0.316 µM): < 7.00 | pIC50 (second compound 1 µM): < 7.00 | pIC50 (second compound 3.16 µM): > 9.50 | pIC50 (second compound 10 µM): < 7.00 | viability, T/C [1]: 80.6% | viability, T/C [2]: 77.1% | viability, T/C [3]: 58.5% | viability, T/C [4]: 73.5% | viability, T/C [5]: 84.6% | viability, T/C [26]: 69% | viability, T/C [6]: 66.8% | viability, T/C [7]: 70% | viability, T/C [8]: 65.5% | viability, T/C [9]: 62.6% | viability, T/C [10]: 67.4% | viability, T/C [27]: 80.4% | viability, T/C [11]: 84.4% | viability, T/C [12]: 77.4% | viability, T/C [13]: 77% | viability, T/C [14]: 71.4% | viability, T/C [15]: 93.5% | viability, T/C [28]: 90.8% | viability, T/C [16]: 34.6% | viability, T/C [17]: 48.8% | viability, T/C [18]: 49.1% | viability, T/C [19]: 49.6% | viability, T/C [20]: 57.7% | viability, T/C [29]: 49.4% | viability, T/C [21]: 90.2% | viability, T/C [22]: 71.6% | viability, T/C [23]: 68.4% | viability, T/C [24]: 71.5% | viability, T/C [25]: 97.1% | viability, T/C [30]: 93.7%

COC(=O)c1ccc2c(C(=Nc3ccc(N(C)C(=O)CN4CCN(C)CC4)cc3)c3ccccc3)c(O)[nH]c2c1 + CC1OCC2(CCN(c3cnc(Sc4ccnc(N)c4Cl)c(N)n3)CC2)C1N
pIC50 (second compound 0.1 µM): 6.15 | pIC50 (second compound 0.316 µM): 6.60 | pIC50 (second compound 1 µM): > 7.50 | pIC50 (second compound 3.16 µM): > 7.50 | pIC50 (second compound 10 µM): > 7.50 | viability, T/C [5]: 69.4% | viability, T/C [26]: 68.6% | viability, T/C [31]: 57.1% | viability, T/C [32]: 44.4% | viability, T/C [33]: 0.37% | viability, T/C [34]: 0.35% | viability, T/C [10]: 63.5% | viability, T/C [27]: 67.5% | viability, T/C [35]: 38.7% | viability, T/C [36]: 34.3% | viability, T/C [37]: 0.32% | viability, T/C [38]: 0.28% | viability, T/C [15]: 51.2% | viability, T/C [28]: 43.6% | viability, T/C [39]: 44% | viability, T/C [40]: 4.05% | viability, T/C [41]: 0.33% | viability, T/C [42]: 0.32% | viability, T/C [20]: 48.1% | viability, T/C [29]: 37% | viability, T/C [43]: 25% | viability, T/C [44]: 2.45% | viability, T/C [45]: 0.48% | viability, T/C [46]: 0.38% | viability, T/C [25]: 37.6% | viability, T/C [30]: 32.4% | viability, T/C [47]: 13.2% | viability, T/C [48]: 0.77% | viability, T/C [49]: 0.35% | viability, T/C [50]: 0.45%

O=C(c1cc(Cc2n[nH]c(=O)c3ccccc23)ccc1F)N1CCN(C(=O)C2CC2)CC1 + CC1OCC2(CCN(c3cnc(Sc4ccnc(N)c4Cl)c(N)n3)CC2)C1N
pIC50 (second compound 0.1 µM): < 5.00 | pIC50 (second compound 0.316 µM): < 5.00 | pIC50 (second compound 1 µM): < 5.00 | pIC50 (second compound 3.16 µM): < 5.00 | pIC50 (second compound 10 µM): 5.50 | viability, T/C [5]: 72.8% | viability, T/C [26]: 70.8% | viability, T/C [31]: 72.9% | viability, T/C [32]: 68.4% | viability, T/C [33]: 81.5% | viability, T/C [34]: 73.5% | viability, T/C [10]: 64.2% | viability, T/C [27]: 72.7% | viability, T/C [35]: 59.1% | viability, T/C [36]: 66.9% | viability, T/C [37]: 54.8% | viability, T/C [38]: 62.4% | viability, T/C [15]: 86.6% | viability, T/C [28]: 89.5% | viability, T/C [39]: 89.1% | viability, T/C [40]: 86% | viability, T/C [41]: 73.3% | viability, T/C [42]: 89.1% | viability, T/C [20]: 56.6% | viability, T/C [29]: 48% | viability, T/C [43]: 52.6% | viability, T/C [44]: 64.6% | viability, T/C [45]: 56.4% | viability, T/C [46]: 50.8% | viability, T/C [25]: 59.9% | viability, T/C [30]: 60.2% | viability, T/C [47]: 99% | viability, T/C [48]: 46% | viability, T/C [49]: 63.9% | viability, T/C [50]: 51.9%
